For experiment [1], the system named is rat pituitary cells. In kind it is cell-based. The method, then: The biological activity of the novel peptides were compared with that of a synthetic standard of the natural sequence of GRF(1-44)-NH2 (SEQ ID NO: 1-NH2) which was isolated from a human pancreatic tumor of an individual suffering from acromegaly (Salk Institute standard hp-GRF-NH2 (NL-A-10)). The assay for biological activity, which is based on the ability to stimulate production of growth hormone in rat pituitary cells in tissue culture, was performed in the following manner. Pituitaries from 30-40 male Sprague-Dawley rats (175 g) were removed aseptically after decapitation. The anterior lobes were collected, washed 3 times in sterile Hepes buffer (0.025M)(pH 7.35) and dispersed at 37° C. in 20-30 ml Hepes buffer (pH 7.35) containing collagenase (4 mg per ml) and Dispase (Protease grande II, 2 mg per ml). After gentle 80 min. vortexing and trituration by Pasteur pipette, the dispersed cells were separated by centrifugation (150×g, 4 min.) and re-suspended in Hepes buffer containing neuraminidase (4 mg/ml), and […] ethylenediaminetetraacetic acid (EDTA) disodium salt pH 7.35, for 10 min. The cells were washed twice with plating medium and plated on multiwell-plates (1.5×10^5 cells per ml) using the following defined medium: F-12/DMEM/BGJ(6:3:1) (Gibco: 430-1700/430-1600/320-2591) with 2 g BSA/L., 2.38 g Hepes/L.,50 mg Gentamycin/L (Schering Co.). The medium in each well was supplemented either with the novel peptide or natural GRF(1-44)-NH2 (SEQ ID NO: 1-NH2) at concentrations ranging from 3.1 to 200 fmol. per ml. of medium. Control wells contained no supplement. Plating was done with this medium added with 2% fetal calf serum to ensure rapid fixation of the cells. On the fourth day the cells were washed twice with the defined medium without fetal calf serum. Finally […] of defined medium was added to each well plus […] of the same medium containing each individual treatment, in triplicate. After 3 hours of incubation the medium was collected and diluted as required to conduct radioimmunoassay (RIA) for rat growth hormone. RIAs were conducted using Sinha's anti-murine GH immune serum and procedures according to the National Pituitary Agency using protein A to precipitate antibody antigen complex.

For experiment [2], the system named is crossbred swine. The experiment in a line: In vivo GRF analog administration in swine, serum GH by RIA (GH AUC). Particulars: relative to GRF(1-29)-NH2. As to the method:
In vivo GRF analog studies were performed in crossbred swine (approximately70 lbs; Hoffmann-La Roche Experimental Research Facility) housed in individual metabolism cages with food and water freely available. For each GRF analog examined, six pigs were arranged in a 6×6 latin square design, such that each pig received a different dose (0 [saline], 0.3, 1.0, 3.0, 6.0 or 10.0 μg/kg body weight) over a six day period. […] All swine were cannulated via the femoral artery under halothane/ketamine HCL/xylezine anesthesia for subsequent (2-3 days) blood sampling. GRF analog was administered by subcutaneous injection in porcine gelatin. Pretreatment (control) blood samples were taken every 30 min from 8:30-9:30 a.m. Treatment doses were administered beginning at 10:00 a.m. One hr post-dosing, animals were sampled at 10 min intervals; 2nd hr post-dosing, animals were sampled at 15 min intervals; 3rd hr post-dosing,animals were sampled at 30 min intervals. […]
GH levels in porcine sera were measured by homologous double-antibody RIA, employing porcine GH standard (lot# AFP-10859C) supplied by Dr. A. Parlow (Research and Education Institute, Torrance, Calif.) and baboon anti-pGH sera (B-58: Hoffmann-La Roche). […] GH area under the curve (GH AUC) for the treatment period (0-360 min) was determined by trapezoidal summation. […]

The conditions of experiment [3]: literature; cited from earlier work.
The conditions of experiment [4]: products of Asn^8 deamidation of [Leu^27]-GRF(1-32)-NH2 at pH 7.4, literature; cited from earlier work.

*1 amine or outer side, *2 acyl side, *3 side chain or, on linkers, in order; H or OH if unused. Where a SMILES comes first, the peptide text is derived from it. Where no end group is shown, it is not given here. [ ]: non-standard residue; d: D form. The star is where a group is joined. Desaminotyrosyl = O=C(CCc1ccc(O)cc1)*; βAsp = O=C(O)[C@H](CC(=O)[*:2])N[*:1]

The source of these data is patent US5846936A, “Growth hormone releasing factor analogs” (Roche Vitamins Inc., priority 1995, dated 1998).

With `CC[C@H](C)[C@H](NC(=O)[C@H](C)NC(=O)[C@H](CC(=O)O)NC(=O)[C@@H](C)NC(=O)CCc1ccc(O)cc1)C(=O)N[C@@H](Cc1ccccc1)C(=O)N[C@H](C(=O)N[C@@H](CC(N)=O)C(=O)N[C@@H](CO)C(=O)N[C@@H](Cc1ccc(O)cc1)C(=O)N[C@@H](CCCNC(=N)N)C(=O)N[C@@H](CCCCN)C(=O)N[C@H](C(=O)N[C@@H](CC(C)C)C(=O)N[C@@H](C)C(=O)N[C@@H](CCC(N)=O)C(=O)N[C@@H](CC(C)C)C(=O)N[C@@H](CO)C(=O)N[C@@H](C)C(=O)N[C@@H](CCCNC(=N)N)C(=O)N[C@@H](CCCCN)C(=O)N[C@@H](CC(C)C)C(=O)N[C@@H](CC(C)C)C(=O)N[C@@H](CCC(N)=O)C(=O)N[C@@H](CC(=O)O)C(=O)N[C@H](C(=O)N[C@@H](CCSC)C(=O)N[C@@H](CO)C(=O)N[C@@H](CCCNC(=N)N)C(N)=O)[C@@H](C)CC)C(C)C)[C@@H](C)O` [SEQ ID NO: 34-NH2, reference compound] (Desaminotyrosyl-[dA]DAIFTNSYRKVLAQLSARKLLQDIMSR-NH2), the “Potency of GRF Analogs Relative to GRF(1-44)-NH2 (SEQ ID NO: 1-NH2)” value in experiment [1] came out at 4.71. Besides, the “Times more potent than GRF(1-29)-NH2 (SEQ ID NO: 3-NH2)” value in experiment [2] is 10-15 times.

In the case of GRF(1-29)-NH2, the “Intrinsic activity and potency in vitro” value in experiment [3] was “full intrinsic activity and potency”.

On to “[isoAsp^8, Leu^27 ]-GRF(1-32)-NH2 (YADAIFT[βAsp]SYRKVLGQLSARKLLQDILSRQQG-NH2; N-terminus assumed; SMILES CC[C@H](C)[C@H](NC(=O)[C@H](C)NC(=O)[C@H](CC(=O)O)NC(=O)[C@H](C)NC(=O)[C@@H](N)Cc1ccc(O)cc1)C(=O)N[C@@H](Cc1ccccc1)C(=O)N[C@H](C(=O)N[C@@H](CC(=O)N[C@@H](CO)C(=O)N[C@@H](Cc1ccc(O)cc1)C(=O)N[C@@H](CCCNC(=N)N)C(=O)N[C@@H](CCCCN)C(=O)N[C@H](C(=O)N[C@@H](CC(C)C)C(=O)NCC(=O)N[C@@H](CCC(N)=O)C(=O)N[C@@H](CC(C)C)C(=O)N[C@@H](CO)C(=O)N[C@@H](C)C(=O)N[C@@H](CCCNC(=N)N)C(=O)N[C@@H](CCCCN)C(=O)N[C@@H](CC(C)C)C(=O)N[C@@H](CC(C)C)C(=O)N[C@@H](CCC(N)=O)C(=O)N[C@@H](CC(=O)O)C(=O)N[C@H](C(=O)N[C@@H](CC(C)C)C(=O)N[C@@H](CO)C(=O)N[C@@H](CCCNC(=N)N)C(=O)N[C@@H](CCC(N)=O)C(=O)N[C@@H](CCC(N)=O)C(=O)NCC(N)=O)[C@@H](C)CC)C(C)C)C(=O)O)[C@@H](C)O) [deamidation product of [Leu^27]-GRF(1-32)-NH2]”, for which the Biological activities entry in experiment [4] is “substantially reduced biological activities”.

Consider “[Asp^8, Leu^27 ]-GRF(1-32)-NH2 (YADAIFTDSYRKVLGQLSARKLLQDILSRQQG-NH2) [deamidation product of [Leu^27]-GRF(1-32)-NH2]”, for which the Biological activities result in experiment [4] is listed as “substantially reduced biological activities”.
